Test results as given in patent publication US20260335274A1, “COMPOSITIONS AND METHODS OF MINIMIZING LONG COVID” (priority 2022, published 2026).

Experiments:
OC43 human coronavirus [1] = test: Pre-infection test, MRC-5 cells, TCID50; assay type: cell-based, human coronavirus OC43 (MRC-5 human cells as host); conditions: MRC5, 10 min; 50 μM EC16m, 10 min incubation before virus; read-out: reduction in viral infectivity, pre-infection
Procedure: EC16m nasal formulations were incubated with MRC-5 cells in 96 well plates for 10 min, and then removed. A series dilution of OC43 in serum-free EMEM was added to the cells and incubated for 1 h. The viral dilutions were then replaced with serum-free EMEM, and TCID50 infection rate was determined after 4-7 days of incubation.

OC43 human coronavirus [2] = test: Post-infection test, MRC-5 cells, TCID50; assay type: cell-based, human coronavirus OC43 (MRC-5 human cells as host); conditions: 10 min exposure; for inhibition at 50 µM: read-out: titer reduction, post-infection
Procedure: Then, 100 μl of either EC16 formulations or Remdesivir solutions of various concentrations were applied onto the cells for 10 min before being replaced by serum-free EMEM. The TCID50 values were determined after incubation for 4-7 days.

[3] = Cytotoxicity of F18m in normal saline, MTT assay; assay type: cell-based; conditions: human, hnepc; EC16m in saline formulation, 60 min exposure; read-out: concentration not toxic to HNEpC
Procedure: The F18m glycerol stock was diluted 10× with normal saline to 1.4 mM of EC16m. A series dilution of this nanoformulation in Airway Growth Medium was applied to a monolayer of Human […] Primary Epithelial Cells (HNPEC, PromoCell) and incubated for 1 h before medium change and overnight incubation, followed by straining with an MTT assay.

OC43 human coronavirus [4] = test: Direct contact (contact inhibition) antiviral test, TCID50; conditions: Betacoronavirus 1, OC43, MRC5, in Homo sapiens, 0.5 h, read-out: reduction of OC43 infectivity
SARS-CoV-2 = conditions: one-hour incubation; cited from earlier work
[5] = in vivo, cited from earlier work

## CCCCCCCCCCCCCCCC(=O)Oc1c(O)cc(C2Oc3cc(O)cc(O)c3CC2OC(=O)c2cc(O)c(O)c(O)c2)cc1O (centres unmarked) [EC16m, Epigallocatechin-3-Gallate-mono-palmitate]
OC43 human coronavirus [1]
  inhibition at 50 µM: 98.5%
OC43 human coronavirus [2]; 12.5 μM EC16m
  inhibition of viral replication, post-infection: 99%
OC43 human coronavirus [2]; MRC5, 10 min, 12.5 μM EC16m, read-out: inhibition of viral replication, post-infection
  inhibition at 12.5 µM: > 99%
OC43 human coronavirus [2]; MRC5, 10 min, 50 μM
  inhibition at 50 µM: 99.8%
[3]
  MNTC at 1 h: < 280 µM
OC43 human coronavirus [4]
  inhibition at 50 µM: 99.9%

## O=C(O[C@@H]1Cc2c(O)cc(O)cc2O[C@@H]1c1cc(O)c(O)c(O)c1)c1cc(O)c(O)c(O)c1 [EGCG, epigallocatechin-3-gallate]
SARS-CoV-2
  EC90: 69 µM
[5]
  bioavailability: very low
[5]; read-out: serum maximum concentration
  Cmax: 570 nM

## CCC(CC)COC(=O)[C@H](C)N[P@](=O)(OC[C@H]1O[C@@](C#N)(c2ccc3c(N)ncnn23)[C@H](O)[C@@H]1O)Oc1ccccc1 [remdesivir, reference compound]
OC43 human coronavirus [2]; MRC5, 10 min, 50 μM
  inhibition at 50 µM: 99.8%
OC43 human coronavirus [2]; MRC5, 10 min, 50 μM, n=4, read-out: log10 titer reduction, post-infection
  log reduction at 50 µM: 2.69 ± 0.24
